This note sets out measurements from patent US20120328569A1, “INHIBITORS OF HEPATITIS C VIRUS NS5B POLYMERASE” (priority 2010, published 2012).

The term IC50 denotes the concentration that inhibits the measured activity by half.

Molecules are shown by their SMILES.

The subject of the test is HCV genotype 1b replicon. Put plainly: HCV replicon assay, cell ELISA with antibody to replicon-encoded NS3/4A (genotype 1b replicon). The test is classed as cell-based, hepatitis C virus. The conditions noted are these: Hepatitis C virus, 96 h, read-out: 1b IC50(nM), HCV genotype 1b replicon; 96 hours incubation; NS3/4A cell ELISA. An outline of the steps: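 An ELISA on lysed cells, using an antibody against NS3/4A protease, served as the proxy for replicon RNA. Cells had first been exposed for 96 h to serially diluted compound in G418-free conditions. Percent of DMSO control was fitted with a four-parameter function to give IC50.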
On the technique in general: Replicon systems follow genome replication, usually without infectious particles.
Regarding `CNC(=O)c1c(-c2ccc(F)cc2)oc2cc(N(CC3(C)COC3)S(C)(=O)=O)c(-c3cccc(-c4nc5ncccc5o4)c3)cc12` [Example 723], the IC50 was found to be 2.31 nM.
In the case of `CNC(=O)c1c(-c2ccc(F)cc2)oc2cc(N(CC3(C)COC3)S(C)(=O)=O)c(-c3ccc(OC)c(-c4nc5c(F)cccc5o4)c3)cc12` [Example 724] it was 4.47 nM; in that of `CNC(=O)c1c(-c2ccc(F)cc2)oc2cc(N(CC3(C)COC3)S(C)(=O)=O)c(-c3ccc(OC)c(-c4nc5c(F)cc(F)cc5o4)c3)cc12` [Example 725], 10.5 nM; in that of `CNC(=O)c1c(-c2ccc(F)cc2)oc2cc(N(C3CCOC3)S(C)(=O)=O)c(-c3ccc(OC)c(-c4nc5c(F)cccc5o4)c3)cc12` (stereo not drawn) [Example 726], 5.54 nM.
In the case of `CNC(=O)c1c(-c2ccc(F)cc2)oc2cc(N(CC3CCOC3)S(C)(=O)=O)c(-c3ccc(OC)c(-c4nc5c(F)cc(F)cc5o4)c3)cc12` (stereo not drawn) [Example 729] it was 3.3 nM; in that of `CNC(=O)c1c(-c2ccc(F)cc2)oc2cc(N(CCC(C)(C)C#N)S(C)(=O)=O)c(-c3ccc(OC)c(-c4nc5c(F)cccc5o4)c3)cc12` [Example 733], 7.78 nM; in that of `CNC(=O)c1c(-c2ccc(F)cc2)oc2cc(N(CCC(C)(C)C#N)S(C)(=O)=O)c(-c3ccc(OC)c(-c4nc5c(F)cc(F)cc5o4)c3)cc12` [Example 735], 10.5 nM.
The result for `CNC(=O)c1c(-c2ccc(F)cc2)oc2cc(N(CC3(C#N)CC3)S(C)(=O)=O)c(-c3ccc(OC)c(-c4nc5c(F)cccc5o4)c3)cc12` [Example 737] reads 19 nM.
Consider `CNC(=O)c1c(-c2ccc(F)cc2)oc2cc(N(CC3(C#N)CC3)S(C)(=O)=O)c(-c3ccc(OC)c(-c4nc5c(F)cc(F)cc5o4)c3)cc12` [Example 738], for which the IC50 was determined as 7.62 nM.
The result for `CNC(=O)c1c(-c2ccc(F)cc2)oc2cc(N(C3CC(C#N)C3)S(C)(=O)=O)c(-c3cccc(-c4nc5ncccc5o4)c3)cc12` (stereo not drawn) [Example 739] reads 2.17 nM.
The result for `CNC(=O)c1c(-c2ccc(F)cc2)oc2cc(N(C3CC(C#N)C3)S(C)(=O)=O)c(-c3ccc(OC)c(-c4nc5c(F)cccc5o4)c3)cc12` (stereo not drawn) [Example 740] reads 4.76 nM; that for `CNC(=O)c1c(-c2ccc(F)cc2)oc2cc(N(C3CC(C#N)C3)S(C)(=O)=O)c(-c3ccc(OC)c(-c4nc5c(C#N)cccc5o4)c3)cc12` (stereo not drawn) [Example 741], 5.85 nM; that for `CNC(=O)c1c(-c2ccc(F)cc2)oc2cc(N(C3CC(C#N)C3)S(C)(=O)=O)c(-c3ccc(OC)c(-c4nc5c(F)cc(F)cc5o4)c3)cc12` (stereo not drawn) [Example 742], 4.57 nM.
Turning to `CNC(=O)c1c(-c2ccc(F)cc2)oc2cc(N(CC3CCOC(c4ccccc4)O3)S(C)(=O)=O)c(-c3ccc(OC)c(-c4nc5c(F)cccc5o4)c3)cc12` (stereo not drawn) [Example 769], the IC50 is 80.7 nM.
The result for `CNC(=O)c1c(-c2ccc(F)cc2)oc2cc(N(CCC3COC(C)(C)O3)S(C)(=O)=O)c(-c3ccc(OC)c(-c4nc5c(F)cccc5o4)c3)cc12` (stereo not drawn) [Example 770] reads 11.3 nM.
In the case of `CNC(=O)c1c(-c2ccc(F)cc2)oc2cc(N(CCC3COC(C)(C)O3)S(C)(=O)=O)c(-c3ccc(OC)c(-c4nc5c(F)cc(F)cc5o4)c3)cc12` (stereo not drawn) [Example 771] it was 13.3 nM.
The result for `CNC(=O)c1c(-c2ccc(F)cc2)oc2cc(N(CC(C)(C)O)S(C)(=O)=O)c(-c3ccc(OC)c(-c4nc5cccc(F)c5o4)c3)cc12` [Example 778] reads 24.8 nM; that for `CNC(=O)c1c(-c2ccc(F)cc2)oc2cc(N(CC(C)(C)O)S(C)(=O)=O)c(-c3ccc(OC)c(-c4nc5c(F)cccc5o4)c3)cc12` [Example 779], 8.28 nM; that for `CNC(=O)c1c(-c2ccc(F)cc2)oc2cc(N(CC(C)(C)O)S(C)(=O)=O)c(-c3ccc(OC)c(-c4nc5cc(F)cc(F)c5o4)c3)cc12` [Example 780], 18.5 nM.
On to `CNC(=O)c1c(-c2ccc(F)cc2)oc2cc(N(C(CO)CO)S(C)(=O)=O)c(-c3ccc(OC)c(-c4nc5c(F)cccc5o4)c3)cc12` [Example 782], for which the IC50 came to 5.41 nM.
The result for `CNC(=O)c1c(-c2ccc(F)cc2)oc2cc(N(CCC(O)CO)S(C)(=O)=O)c(-c3ccc(OC)c(-c4nc5c(F)cccc5o4)c3)cc12` (stereo not drawn) [Example 784] reads 3.61 nM; that for `CNC(=O)c1c(-c2ccc(F)cc2)oc2cc(N(CCC(O)CO)S(C)(=O)=O)c(-c3ccc(OC)c(-c4nc5c(F)cc(F)cc5o4)c3)cc12` (stereo not drawn) [Example 785], 3.55 nM; that for `CNC(=O)c1c(-c2ccc(F)cc2)oc2cc(N(CC(C)(CO)CO)S(C)(=O)=O)c(-c3ccc(OC)c(-c4nc5c(F)cc(F)cc5o4)c3)cc12` [Example 788], 79 nM.
The result for `CNC(=O)c1c(-c2ccc(F)cc2)oc2cc(N(CC(C)(C)F)S(C)(=O)=O)c(-c3ccc(OC)c(-c4nc5c(F)cccc5o4)c3)cc12` [Example 789] reads 18.7 nM; that for `CNC(=O)c1c(-c2ccc(F)cc2)oc2cc(N(CC(C)(C)F)S(C)(=O)=O)c(-c3ccc(OC)c(-c4nc5c(F)cc(F)cc5o4)c3)cc12` [Example 791], 28.5 nM.
The result for `CNC(=O)c1c(-c2ccc(F)cc2)oc2cc(N(CCC(C)(C)F)S(C)(=O)=O)c(-c3ccc(OC)c(-c4nc5c(F)cccc5o4)c3)cc12` [Example 796] reads 14 nM.
In the case of `CNC(=O)c1c(-c2ccc(F)cc2)oc2cc(N(CCC(C)(C)F)S(C)(=O)=O)c(-c3cccc(-c4nc5ncccc5o4)c3)cc12` [Example 797], the IC50 worked out at 2.43 nM.
Take `CNC(=O)c1c(-c2ccc(F)cc2)oc2cc(N(C(CF)CF)S(C)(=O)=O)c(-c3ccc(OC)c(-c4nc5c(F)cccc5o4)c3)cc12` [Example 807]: the IC50 was 46.7 nM.
In the case of `CNC(=O)c1c(-c2ccc(F)cc2)oc2cc(N(CC(C)(CF)CF)S(C)(=O)=O)c(-c3ccc(OC)c(-c4nc5c(F)cc(F)cc5o4)c3)cc12` [Example 809] it was 213 nM; in that of `CNC(=O)c1c(-c2ccc(F)cc2)oc2cc(N(CC(F)CCF)S(C)(=O)=O)c(-c3ccc(OC)c(-c4nc5c(F)cccc5o4)c3)cc12` (stereo not drawn) [Example 810], 13.4 nM; in that of `CNC(=O)c1c(-c2ccc(F)cc2)oc2cc(N(CC(C)(CO)CF)S(C)(=O)=O)c(-c3ccc(OC)c(-c4nc5c(F)cccc5o4)c3)cc12` (stereo not drawn) [Example 813], 107 nM.
In the case of `CNC(=O)c1c(-c2ccc(F)cc2)oc2cc(N(C(CO)CF)S(C)(=O)=O)c(-c3ccc(OC)c(-c4nc5c(F)cccc5o4)c3)cc12` (stereo not drawn) [Example 814] it was 9.83 nM; in that of `CNC(=O)c1c(-c2ccc(F)cc2)oc2cc(N(CC(O)CCF)S(C)(=O)=O)c(-c3ccc(OC)c(-c4nc5c(F)cccc5o4)c3)cc12` (stereo not drawn) [Example 815], 11.8 nM; in that of `CNC(=O)c1c(-c2ccc(F)cc2)oc2cc(N(CC(O)CC#N)S(C)(=O)=O)c(-c3ccc(OC)c(-c4nc5c(F)cc(F)cc5o4)c3)cc12` (stereo not drawn) [Example 819], 8.3 nM.
`CNC(=O)c1c(-c2ccc(F)cc2)oc2cc(N(CC(O)CC#N)S(C)(=O)=O)c(-c3ccc(OC)c(-c4nc5ccccc5o4)c3)cc12` (stereo not drawn) [Example 820]: the IC50 is 5.06 nM.
In the case of `CNC(=O)c1c(-c2ccc(F)cc2)oc2cc(N(CCC(O)CC#N)S(C)(=O)=O)c(-c3ccc(OC)c(-c4nc5c(F)cccc5o4)c3)cc12` (stereo not drawn) [Example 821] it was 3.27 nM.
